From ChEMBL document CHEMBL1158407, “Synthesis of conjugated spermine derivatives with 7-nitrobenzoxadiazole (NBD), rhodamine and bodipy as new fluorescent probes for the polyamine transport system” (2009)
The source made the active and inactive calls. The rule behind the calls is not given here.

Assays:
[1] = Cellular uptake in human NAMALWA cells assessed as fluorescence intensity at 1 uM after 2 hrs by FACS analysis relative to control; format: functional, cell-based; settings: NAMALVA
[2] = Cellular uptake in F14512 co-cultured human NAMALWA cells assessed as decrease in fluorescence at 0.1 uM after 2 hrs by FACS analysis relative to control; format: functional, cell-based; set-up: scale not given: the % may be the effect or the level left; settings: NAMALVA
[3] = test system: CHO-MG; test: Differential fluorescence intensity index, ratio of cellular uptake in Chinese hamster CHO cells expressing PTS to cellular uptake in PTS deficient […] CHO-MG cells at 1 uM after 2 hrs by microscopy and FACS analysis; format: functional

| SMILES | Flu intensity [1] | Activity [2] | fold change (FC) ([3]; Cricetulus griseus) | fold change (FC) [3] |
| --- | --- | --- | --- | --- |
| CCC1=C(C)/C(=C(\c2ccc([N+](=O)[O-])cc2)c2c(C)c(CC)c(C)n2B(F)F)N=C1C | 1390 | 50% | – | – |
| NCCCNCCCCNCCCNC(=S)Nc1ccc(-c2c3ccc(=O)cc-3oc3cc(O)ccc23)c(C(=O)O)c1 | 7.9 | inactive | – | – |
| CCN(CC)c1ccc2c(-c3ccc(NC(=S)NCCCNCCCCNCCCN)cc3C(=O)[O-])c3ccc(=[N+](CC)CC)cc-3oc2c1 | – | inactive | – | – |
| CCN(CC)c1ccc2c(-c3ccc(S(=O)(=O)NCCCNCCCCNCCCN)cc3S(=O)(=O)[O-])c3ccc(=[N+](CC)CC)cc-3oc2c1 | 2.9 | inactive | – | – |
| NCCCNCCCCNCCCNCC(=O)N1CCN(c2ccc([N+](=O)[O-])c3nonc23)CC1 | 2.9 | inactive | – | – |
| CN(C)S(=O)(=O)c1ccc(NCCCNCCCCNCCCN)c2nonc12 | 0 | inactive | – | – |
| CN(C)S(=O)(=O)c1ccc(N2CCN(C(=O)CNCCCNCCCCNCCCN)CC2)c2nonc12 | 0 | inactive | – | – |
| O=[N+]([O-])c1ccc(NCCCNCCCCNCCCNc2ccc([N+](=O)[O-])c3nonc23)c2nonc12 | 627 | inactive | inactive | – |
| CN(CCCNCCCCNCCCN)c1ccc([N+](=O)[O-])c2nonc12 | 56 | > 70% | – | 10 |
| NCCCCNc1ccc([N+](=O)[O-])c2nonc12 | – | – | inactive | – |
| CCC1=C(C)/C(=C(\c2ccc(NC(=O)CNCCCNCCCCNCCCN)cc2)c2c(C)c(CC)c(C)n2B(F)F)N=C1C | 839 | 50% | inactive | – |
| CCN(CC)c1ccc2c(-c3ccc(S(=O)(=O)[O-])cc3S(=O)(=O)NCCCNCCCCNCCCN)c3ccc(=[N+](CC)CC)cc-3oc2c1 | 1.3 | inactive | – | – |
| NCCCNCCCCNCCCNc1ccc(N)c2nonc12 | 0 | inactive | – | – |
| CCN(CC)c1ccc2c(-c3cccc(NC(=S)NCCCNCCCCNCCCN)c3C(=O)[O-])c3ccc(=[N+](CC)CC)cc-3oc2c1 | 15 | inactive | – | – |
| O=[N+]([O-])c1ccc(N2CCNCC2)c2nonc12 | 1.1 | inactive | – | – |
| NCCCNCCCCNCCCNc1ccc([N+](=O)[O-])c2nonc12 | 65 | > 70% | – | 10 |
| NCCCNCCCCN(CCCN)C(=S)Nc1ccc(-c2c3ccc(=O)cc-3oc3cc(O)ccc23)c(C(=O)O)c1 | 8.1 | inactive | – | – |
| CCC1=C(C)/C(=C(\c2ccc(N)cc2)c2c(C)c(CC)c(C)n2B(F)F)N=C1C | 3180 | 50% | – | – |
| CNc1ccc([N+](=O)[O-])c2nonc12 | 0.5 | inactive | inactive | – |
